According to US10717716B2, “1,3,4-oxadiazole derivative compounds as histone deacetylase 6 inhibitor, and the pharmaceutical composition comprising the same” (Chong Kun Dang Pharmaceutical Corp., priority 2015, dated 2020):

Biological target: T1, human recombinant HDAC6 (Homo sapiens, UniProt Q9UBN7)
T1 construct: purchased Calbiochem 382180
T1 sequence (Q9UBN7 1-1215): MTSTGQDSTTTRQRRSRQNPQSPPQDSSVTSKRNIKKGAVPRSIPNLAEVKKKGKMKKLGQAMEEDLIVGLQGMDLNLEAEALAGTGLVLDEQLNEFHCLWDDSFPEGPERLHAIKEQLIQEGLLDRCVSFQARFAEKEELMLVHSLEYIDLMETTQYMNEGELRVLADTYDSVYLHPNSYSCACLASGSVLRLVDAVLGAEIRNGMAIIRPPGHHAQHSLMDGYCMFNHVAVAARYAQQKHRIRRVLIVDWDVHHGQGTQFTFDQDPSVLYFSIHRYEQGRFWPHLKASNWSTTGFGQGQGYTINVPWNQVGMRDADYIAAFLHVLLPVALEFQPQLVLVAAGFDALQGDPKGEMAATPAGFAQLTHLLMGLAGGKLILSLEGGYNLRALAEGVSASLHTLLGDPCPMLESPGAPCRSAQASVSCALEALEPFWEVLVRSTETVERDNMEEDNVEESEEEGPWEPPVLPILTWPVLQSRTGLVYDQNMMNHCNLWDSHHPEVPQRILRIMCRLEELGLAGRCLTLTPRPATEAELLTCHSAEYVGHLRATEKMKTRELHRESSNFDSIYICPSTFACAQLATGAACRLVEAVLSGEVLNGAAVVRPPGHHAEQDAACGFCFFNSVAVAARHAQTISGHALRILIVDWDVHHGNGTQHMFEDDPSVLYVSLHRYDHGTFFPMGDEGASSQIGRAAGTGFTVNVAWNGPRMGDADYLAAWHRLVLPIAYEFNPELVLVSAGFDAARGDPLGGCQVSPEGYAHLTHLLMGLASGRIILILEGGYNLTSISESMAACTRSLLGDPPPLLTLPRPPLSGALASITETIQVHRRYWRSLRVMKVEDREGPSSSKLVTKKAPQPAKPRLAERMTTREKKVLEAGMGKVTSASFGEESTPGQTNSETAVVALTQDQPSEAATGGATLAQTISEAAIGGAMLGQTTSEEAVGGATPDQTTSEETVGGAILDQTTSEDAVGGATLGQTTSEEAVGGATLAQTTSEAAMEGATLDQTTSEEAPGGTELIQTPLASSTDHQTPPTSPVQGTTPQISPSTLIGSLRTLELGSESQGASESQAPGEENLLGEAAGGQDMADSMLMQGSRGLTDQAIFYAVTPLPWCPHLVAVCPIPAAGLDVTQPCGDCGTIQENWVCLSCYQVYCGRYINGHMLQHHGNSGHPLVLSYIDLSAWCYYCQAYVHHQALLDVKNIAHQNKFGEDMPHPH
Experiment: HDAC6 enzyme activity inhibition assay (HDAC Fluorimetric Drug Discovery Kit)
Assay type: biochemical
Details: for HDAC6 selectivity (fold): HDAC6 over HDAC1; for IC50: human recombinant HDAC6, same protocol as HDAC1, read-out: HDAC6
Procedure, shortened: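 Fluorimetric deacetylase assay: 5-fold serial compound dilutions, 0.3 μg recombinant human enzyme (HDAC1 or HDAC6, same protocol), 10 μM Fluor de Lys-SIRT1 substrate, 60 min at 30 °C. Signal developed 30 min, measured at 360/460 nm; IC50 values derived.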

Structure (SMILES) | HDAC6 selectivity (fold) | IC50 [µM]
O=C(N1CCS(=O)(=O)CC1)N(Cc1ccc(-c2nnc(C(F)F)o2)cc1F)c1ccc(-c2cccnc2)cc1 [Compound 21518, N-(4-(5-(difluoromethyl)-1,3,4-oxadiazol-2-yl)-2-fluorobenzyl)-N-(4-(pyridin-3-yl)phenyl)thiomorpholine-4-carboxamide 1,1-dioxide] | 400 | 0.025
O=C(N1CC2(COC2)C1)N(Cc1ccc(-c2nnc(C(F)F)o2)cc1F)c1ccccc1 [Compound 21522, N-(4-(5-(difluoromethyl)-1,3,4-oxadiazol-2-yl)-2-fluorobenzyl)-N-phenyl-2-oxa-6-azaspiro[3.3]heptane-6-carboxamide] | 455 | 0.022
CN1CCN(C(=O)N(Cc2ccc(-c3nnc(C(F)F)o3)cn2)c2ccccc2)CC1 [Compound 21527, N-((5-(5-(difluoromethyl)-1,3,4-oxadiazol-2-yl)pyridin-2-yl)methyl)-4-methyl-N-phenylpiperazine-1-carboxamide] | 357 | 0.028
O=C(N1CCOCC1)N(Cc1ncc(-c2nnc(C(F)F)o2)cn1)c1ccccc1 [Compound 21532, N-((5-(5-(difluoromethyl)-1,3,4-oxadiazol-2-yl)pyrimidin-2-yl)methyl)-N-phenylmorpholine-4-carboxamide] | 208 | 0.048
CN1CCN(C(=O)N(Cc2ccc(-c3nnc(C(F)F)o3)cc2F)c2cccc(-c3ccccc3)c2)CC1 [Compound 21533, N-([1,1′-biphenyl]-3-yl)-N-(4-(5-(difluoromethyl)-1,3,4-oxadiazol-2-yl)-2-fluorobenzyl)-4-methylpiperazine-1-carboxamide] | 70 | 0.143
CN1CCN(C(=O)N(Cc2ccc(-c3nnc(C(F)F)o3)cc2F)c2cccc(-c3ccoc3)c2)CC1 [Compound 21534, N-(4-(5-(difluoromethyl)-1,3,4-oxadiazol-2-yl)-2-fluorobenzyl)-N-(3-(furan-3-yl)phenyl)-4-methylpiperazine-1-carboxamide] | 175 | 0.057
CN1CCN(C(=O)N(Cc2ccc(-c3nnc(C(F)F)o3)cc2F)c2cccc(-c3ccncc3)c2)CC1 [Compound 21535, N-(4-(5-(difluoromethyl)-1,3,4-oxadiazol-2-yl)-2-fluorobenzyl)-4-methyl-N-(3-(pyridin-4-yl)phenyl)piperazine-1-carboxamide] | 227 | 0.044
CN1CCN(C(=O)N(Cc2ccc(-c3nnc(C(F)F)o3)cc2F)c2cccc(-c3cccnc3)c2)CC1 [Compound 21536, N-(4-(5-(difluoromethyl)-1,3,4-oxadiazol-2-yl)-2-fluorobenzyl)-4-methyl-N-(3-(pyridin-3-yl)phenyl)piperazine-1-carboxamide] | 556 | 0.018
CN1CCN(C(=O)N(Cc2ccc(-c3nnc(C(F)F)o3)cc2F)c2cccc(-c3ccc4c(cnn4C)c3)c2)CC1 [Compound 21537, N-(4-(5-(difluoromethyl)-1,3,4-oxadiazol-2-yl)-2-fluorobenzyl)-4-methyl-N-(3-(1-methyl-1H-indazol-5-yl)phenyl)piperazine-1-carboxamide] | 145 | 0.069
CN1CCN(C(=O)N(Cc2ccc(-c3nnc(C(F)F)o3)cc2F)c2ccc(-c3cccnc3)cc2)CC1 [Compound 21540, N-(4-(5-(difluoromethyl)-1,3,4-oxadiazol-2-yl)-2-fluorobenzyl)-4-methyl-N-(4-(pyridin-3-yl)phenyl)piperazine-1-carboxamide] | 333 | 0.03
CN1CCN(C(=O)N(Cc2ccc(-c3nnc(C(F)F)o3)cc2F)c2ccc(-c3ccncc3)cc2)CC1 [Compound 21541, N-(4-(5-(difluoromethyl)-1,3,4-oxadiazol-2-yl)-2-fluorobenzyl)-4-methyl-N-(4-(pyridin-4-yl)phenyl)piperazine-1-carboxamide] | 156 | 0.064
CN1CCN(C(=O)N(Cc2ccc(-c3nnc(C(F)F)o3)cc2F)c2ccc(-c3ccccc3)cc2)CC1 [Compound 21542, N-([1,1′-biphenyl]-4-yl)-N-(4-(5-(difluoromethyl)-1,3,4-oxadiazol-2-yl)-2-fluorobenzyl)-4-methylpiperazine-1-carboxamide] | 164 | 0.061

Further lines, results first:

HDAC6 selectivity (fold) | IC50 [µM] | Structure (SMILES)
115 | 0.087 | CN1CCN(Cc2ccc(N(Cc3ccc(-c4nnc(C(F)(F)F)o4)cc3F)C(=O)N3CCS(=O)(=O)CC3)cc2)CC1 [Compound 21515, N-(2-fluoro-4-(5-(trifluoromethyl)-1,3,4-oxadiazol-2-yl)benzyl)-N-(4-((4-methylpiperazin-1-yl)methyl)phenyl)thiomorpholine-4-carboxamide 1,1-dioxide]
250 | 0.04 | CN1CCN(Cc2ccc(N(Cc3ccc(-c4nnc(C(F)F)o4)cc3F)C(=O)N3CCS(=O)(=O)CC3)cc2)CC1 [Compound 21516, N-(4-(5-(difluoromethyl)-1,3,4-oxadiazol-2-yl)-2-fluorobenzyl)-N-(4-((4-methylpiperazin-1-yl)methyl)phenyl)thiomorpholine-4-carboxamide 1,1-dioxide]
159 | 0.063 | O=C(N1CCS(=O)(=O)CC1)N(Cc1ccc(-c2nnc(C(F)F)o2)cc1F)c1ccc(-c2ccncc2)cc1 [Compound 21520, N-(4-(5-(difluoromethyl)-1,3,4-oxadiazol-2-yl)-2-fluorobenzyl)-N-(4-(pyridin-4-yl)phenyl)thiomorpholine-4-carboxamide 1,1-dioxide]
18 | 0.565 | Cn1ccc2cc(-c3ccc(N(Cc4ccc(-c5nnc(C(F)(F)F)o5)cc4F)C(=O)N4CCS(=O)(=O)CC4)cc3)ccc21 [Compound 21521, N-(2-fluoro-4-(5-(trifluoromethyl)-1,3,4-oxadiazol-2-yl)benzyl)-N-(4-(1-methyl-1H-indol-5-yl)phenyl)thiomorpholine-4-carboxamide 1,1-dioxide]
47 | 0.214 | O=C(N1CCS(=O)(=O)CC1)N(Cc1ccc(-c2nnc(C(F)(F)F)o2)cc1F)c1cccc(OC(F)(F)F)c1 [Compound 21528, N-(2-fluoro-4-(5-(trifluoromethyl)-1,3,4-oxadiazol-2-yl)benzyl)-N-(3-(trifluoromethoxy)phenyl)thiomorpholine-4-carboxamide 1,1-dioxide]
278 | 0.036 | O=C(N1CCS(=O)(=O)CC1)N(Cc1ccc(-c2nnc(C(F)F)o2)cc1F)c1cccc(OC(F)(F)F)c1 [Compound 21529, N-(4-(5-(difluoromethyl)-1,3,4-oxadiazol-2-yl)-2-fluorobenzyl)-N-(3-(trifluoromethoxy)phenyl)thiomorpholine-4-carboxamide 1,1-dioxide]
167 | 0.06 | O=C(N1CCS(=O)(=O)CC1)N(Cc1ccc(-c2nnc(C(F)(F)F)o2)cc1F)c1ccc(F)c(Cl)c1 [Compound 21530, N-(3-chloro-4-fluorophenyl)-N-(2-fluoro-4-(5-(trifluoromethyl)-1,3,4-oxadiazol-2-yl)benzyl)thiomorpholine-4-carboxamide 1,1-dioxide]
769 | 0.013 | O=C(N1CCS(=O)(=O)CC1)N(Cc1ccc(-c2nnc(C(F)F)o2)cc1F)c1ccc(F)c(Cl)c1 [Compound 21531, N-(3-chloro-4-fluorophenyl)-N-(4-(5-(difluoromethyl)-1,3,4-oxadiazol-2-yl)-2-fluorobenzyl)thiomorpholine-4-carboxamide 1,1-dioxide]
294 | 0.034 | O=C(N1CCS(=O)(=O)CC1)N(Cc1ccc(-c2nnc(C(F)F)o2)cc1F)c1ccc2c(c1)CCO2 [Compound 21544, N-(4-(5-(difluoromethyl)-1,3,4-oxadiazol-2-yl)-2-fluorobenzyl)-N-(2,3-dihydrobenzofuran-5-yl)thiomorpholine-4-carboxamide 1,1-dioxide]
